From the supplement of paper PMC10307832

Columns and labels:
Assay in all cases: relative viability (nuclei count vs DMSO), 5 days (fraction); higher = more cells survive
CAL-12T = system: CAL-12T
In short: (§1)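 Lung cancer cell lines in 1536-well plates got either a single drug or a fixed anchor-drug dose together with five library-drug doses (not always all listed) in √10 steps, by pin tool, on the day after seeding. Nuclei were counted after 5 days, and relative viability is the treated-to-vehicle ratio of nuclei counts. Values are medians of duplicate plates.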

NCI-H322M = system: NCI-H322M
In short: as §1

HCC-827 = system: HCC-827
In short: as §1

NCI-H2087 = system: NCI-H2087
In short: as §1

RERF-LC-KJ = system: RERF-LC-KJ
In short: as §1

LXF-289 = system: LXF-289
In short: as §1

NCI-H3122 = system: NCI-H3122
In short: as §1

LCLC-103H = system: LCLC-103H
In short: as §1

SK-LU-1 = system: SK-LU-1
In short: as §1

BEN = system: BEN
In short: as §1

NCI-H2405 = system: NCI-H2405
In short: as §1

NCI-H727 = system: NCI-H727
In short: as §1

201T = system: 201T
In short: as §1

NCI-H1944 = system: NCI-H1944
In short: as §1

NCI-H1437 = system: NCI-H1437
In short: as §1

NCI-H647 = system: NCI-H647
In short: as §1

NCI-H1792 = system: NCI-H1792
In short: as §1

NCI-H2228 = system: NCI-H2228
In short: as §1

LCLC-97TM1 = system: LCLC-97TM1
In short: as §1

NCI-H1650 = system: NCI-H1650
In short: as §1

## CCN(CC)CCCCNc1ncc2cc(-c3cc(OC)cc(OC)c3)c(NC(=O)NC(C)(C)C)nc2n1 + C[C@@H](Oc1cc(-c2cnn(C3CCNCC3)c2)cnc1N)c1c(Cl)ccc(F)c1Cl [Crizotinib] (partner 1 µM)
CAL-12T; first compound 0.01 µM
  relative viability: 0.809
CAL-12T; first compound 0.03162 µM
  relative viability: 0.612
CAL-12T; first compound 0.1 µM
  relative viability: 0.553
CAL-12T; first compound 0.3162 µM
  relative viability: 0.666
CAL-12T; first compound 1 µM
  relative viability: 0.533
NCI-H322M; first compound 0.01 µM
  relative viability: 0.977
NCI-H322M; first compound 0.03162 µM
  relative viability: 0.912
NCI-H322M; first compound 0.1 µM
  relative viability: 0.928
NCI-H322M; first compound 0.3162 µM
  relative viability: 1.06
NCI-H322M; first compound 1 µM
  relative viability: 0.935
HCC-827; first compound 0.01 µM
  relative viability: 0.979
HCC-827; first compound 0.03162 µM
  relative viability: 0.958
HCC-827; first compound 0.1 µM
  relative viability: 0.968
HCC-827; first compound 0.3162 µM
  relative viability: 0.966
HCC-827; first compound 1 µM
  relative viability: 0.937
NCI-H2087; first compound 0.01 µM
  relative viability: 0.925
NCI-H2087; first compound 0.03162 µM
  relative viability: 0.967
NCI-H2087; first compound 0.1 µM
  relative viability: 1.01
NCI-H2087; first compound 0.3162 µM
  relative viability: 0.958
NCI-H2087; first compound 1 µM
  relative viability: 1.06
RERF-LC-KJ; first compound 0.01 µM
  relative viability: 0.84
RERF-LC-KJ; first compound 0.03162 µM
  relative viability: 0.818
RERF-LC-KJ; first compound 0.1 µM
  relative viability: 1.13
RERF-LC-KJ; first compound 0.3162 µM
  relative viability: 0.916
RERF-LC-KJ; first compound 1 µM
  relative viability: 0.816
LXF-289; first compound 0.01 µM
  relative viability: 0.836
LXF-289; first compound 0.03162 µM
  relative viability: 0.817
LXF-289; first compound 0.1 µM
  relative viability: 0.916
LXF-289; first compound 0.3162 µM
  relative viability: 0.824
LXF-289; first compound 1 µM
  relative viability: 0.696
NCI-H3122; first compound 0.01 µM
  relative viability: 0.273
NCI-H3122; first compound 0.03162 µM
  relative viability: 0.282
NCI-H3122; first compound 0.1 µM
  relative viability: 0.317
NCI-H3122; first compound 0.3162 µM
  relative viability: 0.291
NCI-H3122; first compound 1 µM
  relative viability: 0.279
LCLC-103H; first compound 0.01 µM
  relative viability: 1.11
LCLC-103H; first compound 0.03162 µM
  relative viability: 1.04
LCLC-103H; first compound 0.1 µM
  relative viability: 1.07
LCLC-103H; first compound 0.3162 µM
  relative viability: 1.05
LCLC-103H; first compound 1 µM
  relative viability: 1.05
SK-LU-1; first compound 0.01 µM
  relative viability: 0.908
SK-LU-1; first compound 0.03162 µM
  relative viability: 1.02
SK-LU-1; first compound 0.1 µM
  relative viability: 0.901
SK-LU-1; first compound 0.3162 µM
  relative viability: 1
SK-LU-1; first compound 1 µM
  relative viability: 0.641
BEN; first compound 0.01 µM
  relative viability: 1.05
BEN; first compound 0.03162 µM
  relative viability: 0.85
BEN; first compound 0.1 µM
  relative viability: 0.867
BEN; first compound 0.3162 µM
  relative viability: 0.835
BEN; first compound 1 µM
  relative viability: 0.699
NCI-H2405; first compound 0.01 µM
  relative viability: 0.834
NCI-H2405; first compound 0.03162 µM
  relative viability: 0.868
NCI-H2405; first compound 0.1 µM
  relative viability: 0.893
NCI-H2405; first compound 0.3162 µM
  relative viability: 0.873
NCI-H2405; first compound 1 µM
  relative viability: 0.8
NCI-H727; first compound 0.01 µM
  relative viability: 0.829
NCI-H727; first compound 0.03162 µM
  relative viability: 0.923
NCI-H727; first compound 0.1 µM
  relative viability: 1.03
NCI-H727; first compound 0.3162 µM
  relative viability: 1.06
NCI-H727; first compound 1 µM
  relative viability: 0.837
201T; first compound 0.01 µM
  relative viability: 1.06
201T; first compound 0.03162 µM
  relative viability: 1.09
201T; first compound 0.1 µM
  relative viability: 1.06
201T; first compound 0.3162 µM
  relative viability: 1.05
201T; first compound 1 µM
  relative viability: 1.03
NCI-H1944; first compound 0.01 µM
  relative viability: 1.29
NCI-H1944; first compound 0.03162 µM
  relative viability: 1.14
NCI-H1944; first compound 0.1 µM
  relative viability: 1.12
NCI-H1944; first compound 0.3162 µM
  relative viability: 1.35
NCI-H1944; first compound 1 µM
  relative viability: 1.09
NCI-H1437; first compound 0.01 µM
  relative viability: 1.12
NCI-H1437; first compound 0.03162 µM
  relative viability: 0.993
NCI-H1437; first compound 0.1 µM
  relative viability: 0.987
NCI-H1437; first compound 0.3162 µM
  relative viability: 1.16
NCI-H1437; first compound 1 µM
  relative viability: 0.756
NCI-H647; first compound 0.01 µM
  relative viability: 1.06
NCI-H647; first compound 0.03162 µM
  relative viability: 1.08
NCI-H647; first compound 0.1 µM
  relative viability: 1.53
NCI-H647; first compound 0.3162 µM
  relative viability: 1.3
NCI-H647; first compound 1 µM
  relative viability: 0.774
NCI-H1792; first compound 0.01 µM
  relative viability: 1.07
NCI-H1792; first compound 0.03162 µM
  relative viability: 1.02
NCI-H1792; first compound 0.1 µM
  relative viability: 1.33
NCI-H1792; first compound 0.3162 µM
  relative viability: 1.41
NCI-H1792; first compound 1 µM
  relative viability: 0.541
NCI-H2228; first compound 0.01 µM
  relative viability: 0.408
NCI-H2228; first compound 0.03162 µM
  relative viability: 0.564
NCI-H2228; first compound 0.1 µM
  relative viability: 0.348
NCI-H2228; first compound 0.3162 µM
  relative viability: 0.358
NCI-H2228; first compound 1 µM
  relative viability: 0.243
LCLC-97TM1; first compound 0.03162 µM
  relative viability: 0.45
LCLC-97TM1; first compound 0.1 µM
  relative viability: 0.373
LCLC-97TM1; first compound 0.3162 µM
  relative viability: 0.396
LCLC-97TM1; first compound 1 µM
  relative viability: 0.326
NCI-H1650; first compound 0.01 µM
  relative viability: 1.03
NCI-H1650; first compound 0.03162 µM
  relative viability: 0.989
NCI-H1650; first compound 0.1 µM
  relative viability: 0.902
NCI-H1650; first compound 0.3162 µM
  relative viability: 1.02
NCI-H1650; first compound 1 µM
  relative viability: 0.698
